# Assay results taken from ChEMBL document CHEMBL1126738, “(3SR,4aRS,6RS,8aRS)-6-[2-(1H-tetrazol-5-yl)ethyl]decahydroisoquinoline-3 - carboxylic acid: a structurally novel, systemically active, competitive AMPA receptor antagonist” (J Med Chem, 1993).
# Target: Glutamate [NMDA] receptor
# Assay: Inhibitory activity against NMDA receptor using [3H]-CGS- 19755 as radioligand
# Type: protein-complex assay
compound,measurement,value
O=C(O)[C@@H]1C[C@H]2C[C@@H](CCc3nn[nH]n3)CC[C@H]2CN1 [TEZAMPANEL ANHYDROUS],IC50,12.1 µM
